Key:
[1] = Dynamic light scattering of LNPs: Z-average diameter, number average diameter, PDI; assay type: physicochemical; conditions: LNP, sg:mRNA 1:1, N/P about 6, 50/9/38/3; Table 2, Experiments 2-20
Protocol: Dynamic Light Scattering (“DLS”) is used to characterize the polydispersity index (“PDI”) and size of the LNPs of the present disclosure. DLS measures the scattering of light that results from subjecting a sample to a light source. PDI, as determined from DLS measurements, represents the distribution of particle size (around the mean particle size) in a population, with a perfectly uniform population having a PDI of zero.
LNP compositions are analyzed for average particle size, polydispersity index (PDI), total RNA content, encapsulation efficiency of RNA, and zeta potential. LNP compositions may be further characterized by lipid analysis, AF4-MALS, NTA, and/or cryo-EM. Average particle size and polydispersity are measured by dynamic light scattering (DLS) using a Malvern Zetasizer DLS instrument or Wyatt NanoStar. LNP samples were diluted with PBS buffer prior to being measured by DLS. Z-average diameter which is an intensity-based measurement of average particle size is reported along with number average diameter and PDI. A Malvern Zetasizer or Wyatt NanoStar instrument is also used to measure the zeta potential of the LNP. Samples are diluted 1:17 (50 μL into 800 μL) in 0.1× PBS, pH 7.4 prior to measurement.

[2] = RNA encapsulation efficiency of LNPs (Ribogreen fluorescence assay); assay type: physicochemical; conditions: LNP, sg:mRNA 1:1, N/P about 6, amine lipid/DSPC/cholesterol/PEG-2k-DMG 50/9/38/3; Table 2, Experiments 2-20
Protocol: A fluorescence-based assay (Ribogreen®, ThermoFisher Scientific) is used to determine total RNA concentration and free RNA. Encapsulation efficiency is calculated as (Total RNA-Free RNA)/Total RNA. LNP samples are diluted appropriately with 1× TE buffer containing 0.2% Triton-X 100 to determine total RNA or 1× TE buffer to determine free RNA. Standard curves are prepared by utilizing the starting RNA solution used to make the compositions and diluted in 1× TE buffer +/− 0.2% Triton-X 100. Diluted RiboGreen® dye (according to the manufacturer's instructions) is then added to each of the standards and samples and allowed to incubate for approximately 10 minutes at room temperature, in the absence of light. A SpectraMax M5 Microplate Reader (Molecular Devices) is used to read the samples with excitation, auto cutoff and emission wavelengths set to 488 nm, 515 nm, and 525 nm respectively. Total RNA and free RNA are determined from the appropriate standard curves.
Encapsulation efficiency is calculated as (Total RNA-Free RNA)/Total RNA. The same procedure may be used for determining the encapsulation efficiency of a DNA-based cargo component. In a fluorescence-based assay, for single-strand DNA Oligreen Dye may be used, and for double-strand DNA, Picogreen Dye. Alternatively, the total RNA concentration can be determined by a reverse-phase ion-pairing (RP-IP) HPLC method. Triton X-100 is used to disrupt the LNPs, releasing the RNA. The RNA is then separated from the lipid components chromatographically by RP-IP HPLC and quantified against a standard curve using UV absorbance at 260 nm.

Transthyretin (TTR) = assay: Serum TTR ELISA in mice after LNP dosing; assay type: in vivo, CD-1 female mice; conditions: guide G282 experiments; for Serum TTR % TSS: mouse serum TTR relative to TSS control; for Serum TTR: mouse serum, ELISA
Protocol: CD-1 female mice ranging from 6-10 weeks of age were used in each study. Animals were weighed and grouped according to body weight for preparing dosing solutions based on group average weight. LNPs were dosed via the lateral tail vein in a volume of 0.2 mL per animal (approximately 10 mL per kilogram body weight). The animals were periodically observed for adverse effects for at least 24 hours post dose. For studies measuring in vivo editing in liver, CD-1 female mice were dosed at 0.1 mg/kg unless otherwise noted. Animals were euthanized at 6 or 7 days by ex sanguination via cardiac puncture under isoflurane anesthesia. Liver tissue was collected from each animal for DNA extraction and analysis. Blood was collected into serum separator tubes or into tubes containing buffered sodium citrate for plasma as described herein. Cohorts of mice were measured for editing by Next-Generation Sequencing (NGS).
Blood was collected and the serum was isolated as indicated. The total mouse TTR serum levels were determined using a Mouse Prealbumin (Transthyretin) ELISA Kit (Aviva Systems Biology, Cat. OKIA00111). Briefly, sera were serial diluted with kit sample diluent to a final dilution of 10,000-fold for 0.1 mg/kg dose and final dilutions of 10,000-fold and of 2,500-fold for 0.3 mg/kg. This diluted sample was then added to the ELISA plates and the assay was carried out according to the manufacturer's directions.

[3] = pKa measurement of unformulated amine lipid (fluorescence, method of Jayaraman et al.); assay type: physicochemical; conditions: 100 μM in 0.1 M phosphate buffer, pH 2.0-12.0
Protocol: The pKa of each amine lipid was determined according to the method in Jayaraman, et al. (Angewandte Chemie, 2012) with the following adaptations. […] Lipid was diluted to 100 μM in 0.1 M phosphate buffer (Boston Bioproducts) where the pH ranged from 2.0-12.0. Fluorescence intensity was measured using excitation and emission wavelengths of 321 nm and 448 nm.

Number mean (nm) [1] [nm] | PDI [1] | Z-avg (nm) [1] [nm] | Encapsulation (%) [2] [%] | pKa [3] | SMILES | Serum TTR % TSS (Transthyretin (TTR)) [%] | Serum TTR (Transthyretin (TTR)) [µg/mL]
48.22 | 0.090 | 68.72 | 97 |  | CCCCC/C=C\C/C=C\CCCCCCCC(=O)OCC(COC(=O)CCC(OCCCCCCCC)OCCCCCCCC)COC(=O)OCCN(C)C (stereo not drawn) [Compound 18, 3-((4,4-bis(octyloxy)butanoyl)oxy)-2-((((2-(dimethylamino)ethoxy)carbonyl)oxy)methyl)propyl (9Z,12Z)-octadeca-9,12-dienoate] | 82 | 849
64.34 | 0.023 | 79.25 | 96 |  | CCCCC/C=C\C/C=C\CCCCCCCC(=O)OCC(COC(=O)CCC(OCCCCCCCC)OCCCCCCCC)COC(=O)OCCCN(C)CC (stereo not drawn) [Compound 20, 3-((4,4-bis(octyloxy)butanoyl)oxy)-2-((((3-(ethyl(methyl)amino)propoxy)carbonyl)oxy)methyl)propyl (9Z,12Z)-octadeca-9,12-dienoate] | 46 | 476
59.75 | 0.039 | 75.41 | 94 |  | CCCCC/C=C\C/C=C\CCCCCCCC(=O)OCC(COC(=O)CCC(OCCCCCCCC)OCCCCCCCC)COC(=O)OCCCN(C(C)C)C(C)C (stereo not drawn) [Compound 21, 3-((4,4-bis(octyloxy)butanoyl)oxy)-2-((((3-(diisopropylamino)propoxy)carbonyl)oxy)methyl)propyl (9Z,12Z)-octadeca-9,12-dienoate] | 87 | 897
 |  |  |  | 7.84 | CCCCC/C=C\C/C=C\CCCCCCCC(=O)OCC(COC(=O)CCC(OCCCCCCCC)OCCCCCCCC)COC(=O)NCCN(C)C (stereo not drawn) [Compound 34, 3-((4,4-bis(octyloxy)butanoyl)oxy)-2-((((2-(dimethylamino)ethyl)carbamoyl)oxy)methyl)propyl (9Z,12Z)-octadeca-9,12-dienoate] |  | 
 |  |  |  | 7.39 | CCCCC/C=C\C/C=C\CCCCCCCC(=O)OCC(COC(=O)CCC(OCCCCCCCC)OCCCCCCCC)COC(=O)NCCN(C)CC (stereo not drawn) [Compound 35, 3-((4,4-bis(octyloxy)butanoyl)oxy)-2-((((2-(ethyl(methyl)amino)ethyl)carbamoyl)oxy)methyl)propyl (9Z,12Z)-octadeca-9,12-dienoate] |  | 

Continued, compound first:

SMILES | Number mean (nm) [1] [nm] | PDI [1] | Z-avg (nm) [1] [nm] | Encapsulation (%) [2] [%] | pKa [3] | Serum TTR % TSS (Transthyretin (TTR)) [%] | Serum TTR (Transthyretin (TTR)) [µg/mL]
CCCCC/C=C\C/C=C\CCCCCCCC(=O)OCC(COC(=O)CCC(OCCCCCCCC)OCCCCCCCC)COC(=O)OCCC(C)N(C)C (stereo not drawn) [Compound 22, 3-((4,4-bis(octyloxy)butanoyl)oxy)-2-((((3-(dimethylamino)butoxy)carbonyl)oxy)methyl)propyl (9Z,12Z)-octadeca-9,12-dienoate] | 73.96 | 0.004 | 89.43 | 98 |  | 61 | 634
CCCCC/C=C\C/C=C\CCCCCCCC(=O)OCC(COC(=O)CCC(OCCCCCCCC)OCCCCCCCC)COC(=O)OCCCN1CCCCCC1 (stereo not drawn) [Compound 23, 3-(((3-(azepan-1-yl)propoxy)carbonyl)oxy)-2-(((4,4-bis(octyloxy)butanoyl)oxy)methyl)propyl (9Z,12Z)-octadeca-9,12-dienoate] | 56.62 | 0.068 | 74.78 | 95 |  | 83 | 716
CCCCC/C=C\C/C=C\CCCCCCCC(=O)OCC(COC(=O)CCC(OCCCCCCCC)OCCCCCCCC)COC(=O)C1(C)CCN(C)C1 (stereo not drawn) [Compound 30, 3-((4,4-bis(octyloxy)butanoyl)oxy)-2-((((9Z,12Z)-octadeca-9,12-dienoyl)oxy)methyl)propyl 1,3-dimethylpyrrolidine-3-carboxylate] |  |  |  |  | 6.06 |  | 
CCCCC/C=C\C/C=C\CCCCCCCC(=O)OCC(COC(=O)CCC(OCCCCCCCC)OCCCCCCCC)COC(=O)N(C)CCN(CC)CC (stereo not drawn) [Compound 33, 3-((4,4-bis(octyloxy)butanoyl)oxy)-2-((((2-(diethylamino)ethyl)(methyl)carbamoyl)oxy)methyl)propyl (9Z,12Z)-octadeca-9,12-dienoate] |  |  |  |  | 6.03 |  | 
CCCCC/C=C\C/C=C\CCCCCCCC(=O)OCC(COC(=O)CCC(OCCCCCCCC)OCCCCCCCC)COC(=O)NCC1CCN(C)C1 (stereo not drawn) [Compound 43, 3-((4,4-bis(octyloxy)butanoyl)oxy)-2-(((((1-methylpyrrolidin-3-yl)methyl)carbamoyl)oxy)methyl)propyl (9Z,12Z)-octadeca-9,12-dienoate] |  |  |  |  | 8.6 |  | 
CCCCC/C=C\C/C=C\CCCCCCCC(=O)OCC(COC(=O)CCC(OCCCCCCCC)OCCCCCCCC)COC(=O)NCCCN1CCC(O)CC1 (stereo not drawn) [Compound 46, 3-((4,4-bis(octyloxy)butanoyl)oxy)-2-((((3-(4-hydroxypiperidin-1-yl)propyl)carbamoyl)oxy)methyl)propyl (9Z,12Z)-octadeca-9,12-dienoate] |  |  |  |  | 8.9 |  | 
CCCCC/C=C\C/C=C\CCCCCCCC(=O)OCC(COC(=O)CCC(OCCCCCCCC)OCCCCCCCC)COC(=O)NCCN1CCC(O)CC1 (stereo not drawn) [Compound 49, 3-((4,4-bis(octyloxy)butanoyl)oxy)-2-((((2-(4-hydroxypiperidin-1-yl)ethyl)carbamoyl)oxy)methyl)propyl (9Z,12Z)-octadeca-9,12-dienoate] |  |  |  |  | 8.4 |  | 
CCCCC/C=C\C/C=C\CCCCCCCC(=O)OCC(COC(=O)CCC(OCCCCCCCC)OCCCCCCCC)COC(=O)OCC1CN(CC)C1 (stereo not drawn) [Compound 50, 3-((4,4-bis(octyloxy)butanoyl)oxy)-2-(((((1-ethylazetidin-3-yl)methoxy)carbonyl)oxy)methyl)propyl (9Z,12Z)-octadeca-9,12-dienoate] |  |  |  |  | 5.2 |  | 
CCCCCCCCOC(CCC(=O)OCC(COC(=O)CCCCCCCC(=O)OCCCCCC)COC(=O)OCCCN(CC)CC)OCCCCCCCC (stereo not drawn) [Compound 57, 1-(3-((4,4-bis(octyloxy)butanoyl)oxy)-2-((((3-(diethylamino)propoxy)carbonyl)oxy)methyl)propyl) 9-hexyl nonanedioate] | 83.41 | 0.011 | 102 | 89 | 6.59 |  | 
CCCCCCCCCCOC(=O)CCCCCCCC(=O)OCC(COC(=O)CCC(OCCCCCCC)OCCCCCCC)COC(=O)OCCCN(CC)CC (stereo not drawn) [Compound 78, 1-(3-((4,4-bis(heptyloxy)butanoyl)oxy)-2-((((3-(diethylamino)propoxy)carbonyl)oxy)methyl)propyl) 9-decyl nonanedioate] |  |  |  |  | 6.11 |  | 
CCCCCCCCCCOC(=O)CCCCCCCC(=O)OCC(COC(=O)CCCCCC(=O)OC(CCCCCCCC)CCCCCCCC)COC(=O)NCCN(CC)CC (stereo not drawn) [Compound 81, 1-decyl 9-(3-(((2-(diethylamino)ethyl)carbamoyl)oxy)-2-(((7-(heptadecan-9-yloxy)-7-oxoheptanoyl)oxy)methyl)propyl) nonanedioate] |  |  |  |  | 6.65 |  | 

— patent publication US20220402862A1 (Intellia Therapeutics, Inc., priority 2019, published 2022)
